From patent US6914045B2, “Glycopeptide antibiotics” (Wyeth Holdings Corporation, priority 2001, dated 2005)

Experiments:
Assay in all cases: in vitro antibacterial evaluation, MIC by broth dilution
Type in all cases: cell-based
Enterococcus sp. = settings: broth dilution, 18 hours at 35° C.
Summary of the method: (§1)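 Broth dilution per NCCLS standard M7-A2 in Muller-Hinton II […], with an inoculum of 5×10^5 CFU/mL and antibiotic spanning 64-0.06 μg/mL. The MIC is the lowest concentration that inhibits growth of the organism.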

Staphylococcus sp. = settings: broth dilution, 18 hours at 35° C.
Summary of the method: as §1

Streptococcus sp. = settings: broth dilution, 18 hours at 35° C.
Summary of the method: as §1

Escherichia coli = settings: 18 hours at 35° C.

MIC Enterococcus avium (GC 4558) (Enterococcus sp.): 8 to 64 µg/mL | MIC Enterococcus faecalis (ATCC 29212) (Enterococcus sp.): 8 to 128 µg/mL | MIC Enterococcus faecalis (GC 2242) (Enterococcus sp.): 8 to 64 µg/mL | MIC Enterococcus faecalis (GC 2691) (Enterococcus sp.): 16 to 64 µg/mL | MIC Enterococcus faecalis (GC 3059) (Enterococcus sp.): 16 to 128 µg/mL | MIC Enterococcus faecalis (GC 4552) (Enterococcus sp.): 8 to 128 µg/mL | MIC Enterococcus faecalis (GC 4553) (Enterococcus sp.): 8 to 128 µg/mL | MIC Enterococcus faecalis (GC 4554) (Enterococcus sp.): 16 to 128 µg/mL | MIC Enterococcus faecalis (GC 6189) (Enterococcus sp.): 8 to 64 µg/mL | MIC Enterococcus faecium (GC 2243) (Enterococcus sp.): 8 to 128 µg/mL | MIC Enterococcus faecium (GC 4556) (Enterococcus sp.): 16 to 128 µg/mL | MIC Enterococcus faecium (GC 4557) (Enterococcus sp.): 4 to 16 µg/mL | MIC Enterococcus faecalis (ATCC 29212) (Enterococcus sp.; inoculum 5×10^5 CFU/mL, strain ATCC 29212): 8 to 128 µg/mL | MIC Enterococcus faecalis (GC 2242) (Enterococcus sp.; inoculum 5×10^5 CFU/mL, strain GC 2242): 8 to 64 µg/mL | MIC Enterococcus faecium (GC 2243) (Enterococcus sp.; inoculum 5×10^5 CFU/mL, strain GC 2243): 8 to 128 µg/mL | MIC Enterococcus faecalis (GC 2691) (Enterococcus sp.; inoculum 5×10^5 CFU/mL, strain GC 2691): 16 to 64 µg/mL | MIC Enterococcus faecalis (GC 3059) (Enterococcus sp.; inoculum 5×10^5 CFU/mL, strain GC 3059): 16 to 128 µg/mL | MIC Enterococcus faecalis (GC 4552) (Enterococcus sp.; inoculum 5×10^5 CFU/mL, strain GC 4552): 8 to 128 µg/mL | MIC Enterococcus faecalis (GC 4553) (Enterococcus sp.; inoculum 5×10^5 CFU/mL, strain GC 4553): 8 to 128 µg/mL | MIC Enterococcus faecalis (GC 4554) (Enterococcus sp.; inoculum 5×10^5 CFU/mL, strain GC 4554): 16 to 128 µg/mL | MIC Enterococcus faecium (GC 4556) (Enterococcus sp.; inoculum 5×10^5 CFU/mL, strain GC 4556): 16 to 128 µg/mL | MIC Enterococcus faecium (GC 4557) (Enterococcus sp.; inoculum 5×10^5 CFU/mL, strain GC 4557): 4 to 16 µg/mL | MIC Enterococcus avium (GC 4558) (Enterococcus sp.; inoculum 5×10^5 CFU/mL, strain GC 4558): 8 to 64 µg/mL | MIC Enterococcus faecalis (GC 6189) (Enterococcus sp.; inoculum 5×10^5 CFU/mL, strain GC 6189): 8 to 64 µg/mL | MIC Coagulase Negative Staphylococcus (GC 4547) (Staphylococcus sp.): 4 to 32 µg/mL | MIC Coagulase Negative Staphylococcus (GC 4548) (Staphylococcus sp.): 2 to 32 µg/mL | MIC Coagulase Negative Staphylococcus (GC 4549) (Staphylococcus sp.): 2 to 16 µg/mL | MIC Coagulase Negative Staphylococcus (GC 4551) (Staphylococcus sp.): 8 to 32 µg/mL | MIC Coagulase Negative Staphylococcus (GC 6257) (Staphylococcus sp.): 1 to 32 µg/mL | MIC Staphylococcus aureus (ATCC 29213) (Staphylococcus sp.): 4 to 64 µg/mL | MIC Staphylococcus aureus (GC 1131) (Staphylococcus sp.): 4 to 64 µg/mL | MIC Staphylococcus aureus (GC 3051) (Staphylococcus sp.): 4 to 64 µg/mL | MIC Staphylococcus aureus (GC 3053) (Staphylococcus sp.): 8 to 64 µg/mL | MIC Staphylococcus aureus (GC 4541) (Staphylococcus sp.): 4 to 32 µg/mL | MIC Staphylococcus aureus (GC 4542) (Staphylococcus sp.): 4 to 32 µg/mL | MIC Staphylococcus aureus (GC 4544) (Staphylococcus sp.): 4 to 64 µg/mL | MIC Staphylococcus aureus (GC 4545) (Staphylococcus sp.): 4 to 32 µg/mL | MIC Staphylococcus aureus-SMITH (GC 4543) (Staphylococcus sp.): 4 to 64 µg/mL | MIC Staphylococcus aureus (ATCC 29213) (Staphylococcus sp.; strain ATCC 29213): 4 to 64 µg/mL | MIC Staphylococcus aureus (GC 1131) (Staphylococcus sp.; strain GC 1131): 4 to 64 µg/mL | MIC Staphylococcus aureus (GC 3051) (Staphylococcus sp.; strain GC 3051): 4 to 64 µg/mL | MIC Staphylococcus aureus (GC 3053) (Staphylococcus sp.; strain GC 3053): 8 to 64 µg/mL | MIC Staphylococcus aureus (GC 4541) (Staphylococcus sp.; strain GC 4541): 4 to 32 µg/mL | MIC Staphylococcus aureus (GC 4542) (Staphylococcus sp.; strain GC 4542): 4 to 32 µg/mL | MIC Staphylococcus aureus-SMITH (GC 4543) (Staphylococcus sp.; strain GC 4543): 4 to 64 µg/mL | MIC Staphylococcus aureus (GC 4544) (Staphylococcus sp.; strain GC 4544): 4 to 64 µg/mL | MIC Staphylococcus aureus (GC 4545) (Staphylococcus sp.; strain GC 4545): 4 to 32 µg/mL | MIC Coagulase Negative Staphylococcus (GC 4547) (Staphylococcus sp.; strain GC 4547): 4 to 32 µg/mL | MIC Coagulase Negative Staphylococcus (GC 4548) (Staphylococcus sp.; strain GC 4548): 2 to 32 µg/mL | MIC Coagulase Negative Staphylococcus (GC 4549) (Staphylococcus sp.; strain GC 4549): 2 to 16 µg/mL | MIC Coagulase Negative Staphylococcus (GC 4551) (Staphylococcus sp.; strain GC 4551): 8 to 32 µg/mL | MIC Coagulase Negative Staphylococcus (GC 6257) (Staphylococcus sp.; strain GC 6257): 1 to 32 µg/mL | MIC Streptococcus agalactiae (GC 4564) (Streptococcus sp.): 1 to 8 µg/mL | MIC Streptococcus pneumoniae (ATCC 6301) (Streptococcus sp.): 0.25 to 2 µg/mL | MIC Streptococcus pneumoniae (GC 1894) (Streptococcus sp.): <0.06 to 2 µg/mL | MIC Streptococcus pneumoniae (GC 4565) (Streptococcus sp.): 0.5 to 8 µg/mL | MIC Streptococcus pyogenes (GC 4563) (Streptococcus sp.): 1 to 8 µg/mL | MIC Streptococcus pneumoniae (ATCC 6301) (Streptococcus sp.; inoculum 5×10^5 CFU/mL, strain ATCC 6301): 0.25 to 2 µg/mL | MIC Streptococcus pneumoniae (GC 1894) (Streptococcus sp.; inoculum 5×10^5 CFU/mL, strain GC 1894): <0.06 to 2 µg/mL | MIC Streptococcus pyogenes (GC 4563) (Streptococcus sp.; inoculum 5×10^5 CFU/mL, strain GC 4563): 1 to 8 µg/mL | MIC Streptococcus agalactiae (GC 4564) (Streptococcus sp.; inoculum 5×10^5 CFU/mL, strain GC 4564): 1 to 8 µg/mL | MIC Streptococcus pneumoniae (GC 4565) (Streptococcus sp.; inoculum 5×10^5 CFU/mL, strain GC 4565): 0.5 to 8 µg/mL | MIC Escherichia coli (ATCC 25922) (Escherichia coli): >128 µg/mL | MIC Escherichia coli (GC 4559) (Escherichia coli): >128 µg/mL | MIC Escherichia coli (GC 4560) (Escherichia coli): 0.25 to 4 µg/mL
Compound: CC(c1ccccc1)C1NC(=O)CNC(=O)C(CO)NC(=O)C(C(O)C2CNC(=N)N2C2OC(CO)C(O)C(O)C2O)NC(=O)C(C(O)C2CNC(=N)N2)NC(=O)C(Cc2ccc(OC3OC(CO)C(OC4OC(CO)C(O)C(O)C4OCc4ccc(OCc5ccccc5)cc4)C(O)C3O)cc2)NC1=O (stereo not drawn) [Example 231b, Cyclo[glycyl-β-methylphenylalanyl-O-[4-O-[2-O-[4-(phenylmethoxy)benzyl]hexopyranosyl]-hexopyranosyl]tyrosyl-3-(2-iminoimidazolidin-4-yl)seryl-3-(3-hexopyranosyl-2-iminoimidazolidin-4-yl)serylseryl]]
MIC Staphylococcus haemolyticus (GC 4546) (Staphylococcus sp.): 4 to 32 µg/mL | MIC Staphylococcus haemolyticus (GC 4546) (Staphylococcus sp.; strain GC 4546): 4 to 32 µg/mL
